# Laboratory results published in patent publication US9895344B2, “Treating various disorders with 7,8-dihydroxyflavone and derivatives thereof” (EMORY UNIVERSITY, priority 2008, dated 2018).
# Columns and labels:
# GST-TrkB ICD = GST-TrkB ICD (Rattus norvegicus, UniProt Q63604); assay: In vitro binding assay with immobilized GST-TrkB ICD on glutathione beads, UV-spectrometry of eluate; conditions: 500 nM, 4° C., 30 minutes, FIG. 17
# Description: To further explore the association of 7,8-dihydroxyflavone and the TrkB receptor, an in vitro binding assay was performed. Increasing volumes of GST-TrkB ECD and GST-TrkB ICD were bound to glutathione beads to a total of 250 uL, and 500 nM 7,8-dihydroxyflavone in 250 μl (20% DMSO/80% PBS) was incubated with the beads in the column at 4° C. for 30 minutes. After the incubation, the elute fractions were collected and the concentration of eluted 7,8-dihydroxyflavone was analyzed by UV-spectrometry at a wavelength of 410 nm.
# TrkB [1] = target: T1, TrkB (Mus musculus, UniProt P15209); assay: Trk activation in cortical neurons from wild-type and TrkB-null pups: TrkB; format: cell-based, mice; conditions: wild-type but not TrkB-null neurons, FIG. 21
# T1 construct: from tissue; host or cells: mouse brain
# Description: (§1) To determine whether 7,8-dihydroxyflavone can selectively activate TrkB receptor and prevent neuronal cell death, cortical neurons were prepared from homozygous pups of TrkB+/−mice, which were mated to the same genotype. […] Glutamate nonselectively elicited weak TrkA phosphorylation in both wild-type and TrkB-null neurons (FIG. 21, row 3).
# Caspase-3 activation [2] = assay: Glutamate-provoked Caspase-3 activation in wild-type and TrkB-/- cortical neurons; format: cell-based, mice; conditions: FIG. 21
# Description: as §1
# TrkB [3] = target: T1, TrkB; assay: Trk activation in wild-type and TrkC knockout cortical neurons: TrkB; format: cell-based, mice; conditions: FIG. 22
# Description: (§2) To further assess whether 7,8-dihydroxyflavone blocks neuronal apoptosis in a TrkB dependent manner, cortical neurons were prepared from homozygous pups of TrkC+/−mice, which were mated to the same genotype. […] Glutamate weakly stimulated both TrkA and TrkB faint phosphorylation regardless of TrkC genotype (FIG. 22, rows 1 and 3). The spontaneous caspase-3 activation in TrkC−/− neurons was suppressed by 7,8-dihydroxyflavone (FIG. 22, row 5).
# Caspase-3 activation [4] = assay: Caspase-3 activation in wild-type and TrkC-/- cortical neurons; format: cell-based, mice; conditions: FIG. 22 row 5
# Description: as §2
# TrkB F616A = target: T2, TrkB F616A (Mus musculus, UniProt P15209, F616A); assay: TrkB phosphorylation in cortical neurons from TrkB F616A knockin mice; format: cell-based; conditions: 0.5 μM, 30 minutes, FIG. 23
# T2 construct: endogenous in cells; host or cells: cortical neurons of TrkB F616A knock-in mice
# Description: To explore whether the neuroprotective action of 7,8-dihydroxyflavone is dependent on TrkB activation in vivo, TrkB F616A knockin mice were used. […] To further assess whether 7,8-dihydroxyflavone can mimic BDNF, cortical neurons were prepared from TrkB F616A knockin mice. The cortical neurons were pretreated for 30 minutes with either K252a Trk tyrosine kinase inhibitor (100 nM) or 1NMPP1 inhibitor (100 nM) followed by 0.5 μM 7,8-dihydroxyflavone for 30 minutes.
# [5] = test system: progenitor proliferation in hippocampus; assay: Neurogenesis analysis in hippocampus (BrdU); format: in vivo, C57BL/6J mice; conditions: 5 mg/kg daily for 21 days, compared to vehicle control, FIGS. 32 and 33
# Description: Adult male mice (2-3 months old) were orally injected with saline, 4′-DMA-7,8-DHF and 7,8-DHF (5 mg/kg) for 21 days. Then BrdU (50 mg/kg) was i.p. injected. In 2 hours, the mice were perfused with 4% paraformaldehyde. Immunohistochemical staining was performed on formalin-fixed paraffin-embedded sections. Sections from brain were cut, deparaffinized in xylene and rehydrated in graded alcohols. The slides were boiled in 10 mM citric acid (pH 6.0) for 10 minutes followed by an incubation in 2 N HCl for 10 minutes in room temperature. The slides were then permeabilized and blocked with 1% BSA in 0.2% PBST. The incorporated BrdU were stained using anti-BrdU-FITC (Abcam, Inc; Cambridge, Mass.) at 4° C. for 16 hours. After three washes in PBS, the cells were stained with DAPI for another 10 minutes at room temperature. The slides were mounted with AquaMount (Lerner Laboratories; Pittsburgh, Pa.) containing 0.01% 1,4-diazobicyclo(2,2,2)octane and examined under a fluorescence microscope.
# To test whether increasing TrkB activation by 4′-dimethylamino-7,8-dihydroxyflavone would elevate neurogenesis, adult male C57BL/6J mice were injected daily for 21 days with either vehicle, 7,8-DHF, or 4′-DMA-7,8-DHF (5 mg/kg). At the end of treatment (day 21), the animals were injected with BrdU (50 mg/kg, i.p.) to label the dividing cells and were sacrificed 2 hours later. […]
# immobility = assay: Forced swim test after 21 days oral treatment; format: in vivo, C57BL/6J mice; conditions: 5 mg/kg, oral injection, FIG. 34
# Description: Adult male mice (2-3 months old) were randomly submitted to a forced swim test without a pre-swim. Saline, 4′-DMA-7,8-DHF and 7,8-DHF (5 mg/kg) were orally injected for 21 days. The mice were allowed to adapt to the test room for 2 days. The mice were placed in a clear glass cylinder with a diameter of 16 cm, half-filled with clear water at 24° C.
# To explore whether 4′-DMA-7,8-DHF and 7,8-DHF have any antidepressant effect, a forced swim test (6 minutes, immobility recorded in the last 4 minutes) was conducted after chronic treatment of male C57BL/6J mice (8 mice/group) for 21 days via oral injection.
# immobility time = assay: Forced swim test in TrkB F616A knockin mice with saline or 1NMPP1 pretreatment; format: in vivo; conditions: drugs for five days, FIG. 36
# Description: To assess whether the behavior responses by 7,8-DHF and its derivative are mediated by TrkB receptor, TrkB F616A knockin mice were utilized. The transgenic mice were subjected to saline or 1NMPP1 pretreatment (25 μM), respectively (drinking water provided one day prior to drug injection and maintained throughout whole experiment). The control and/or drugs were provided for five days. […] (Data presented in FIGS. 34, 35, and 36 as mean±SEM; *p<0.05 against vehicle, #P<0.01 against vehicle and ***P<0.0001 against vehicle, student t-test.)
# TrkB [6] = target: TrkB (Rattus norvegicus, UniProt Q63604); assay: Tyrosine phosphorylation of Trk receptors in transfected HEK293 cells: TrkB; format: cell-based; design: expressed in transfected cells; host or cells: HEK293; conditions: FIG. 15
# From the text: To determine if 7,8-dihydroxyflavone promoted tyrosine phosphorylation of the other Trk receptors, HEK293 cells were transfected with various Trk receptors, followed by treatment with 7,8-dihydroxyflavone.
# T1 sequence (P15209 32-821): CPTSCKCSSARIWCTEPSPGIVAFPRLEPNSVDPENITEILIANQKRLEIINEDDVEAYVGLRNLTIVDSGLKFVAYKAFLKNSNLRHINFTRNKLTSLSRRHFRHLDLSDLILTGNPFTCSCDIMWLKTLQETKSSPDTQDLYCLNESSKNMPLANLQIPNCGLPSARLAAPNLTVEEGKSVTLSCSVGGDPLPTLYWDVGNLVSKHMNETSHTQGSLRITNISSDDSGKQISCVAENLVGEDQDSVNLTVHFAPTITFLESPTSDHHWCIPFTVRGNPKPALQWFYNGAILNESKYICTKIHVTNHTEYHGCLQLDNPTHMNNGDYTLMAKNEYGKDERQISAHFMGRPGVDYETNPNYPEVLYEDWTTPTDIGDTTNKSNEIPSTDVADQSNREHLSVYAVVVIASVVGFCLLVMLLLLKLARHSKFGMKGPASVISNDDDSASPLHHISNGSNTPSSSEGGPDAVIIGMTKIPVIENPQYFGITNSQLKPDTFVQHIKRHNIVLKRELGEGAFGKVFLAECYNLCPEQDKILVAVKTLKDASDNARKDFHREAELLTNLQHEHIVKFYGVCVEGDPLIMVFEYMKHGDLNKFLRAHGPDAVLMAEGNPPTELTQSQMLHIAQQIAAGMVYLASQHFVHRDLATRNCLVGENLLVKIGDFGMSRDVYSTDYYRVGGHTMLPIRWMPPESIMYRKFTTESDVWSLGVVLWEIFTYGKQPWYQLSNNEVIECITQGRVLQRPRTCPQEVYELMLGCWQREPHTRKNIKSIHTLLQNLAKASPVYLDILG
# TrkB (Rattus norvegicus, UniProt Q63604), sequence (Q63604 32-821): as the sequence (P15209 32-821) above, with T3M, S9T, A10T, V32I, R63K, S84G, M153T, L185I, S394T, S770N counted along it
# T2 sequence (P15209 32-821 F616A): as the sequence (P15209 32-821) above, with F585A counted along it
# GST-TrkB ICD, sequence (Q63604 454-821): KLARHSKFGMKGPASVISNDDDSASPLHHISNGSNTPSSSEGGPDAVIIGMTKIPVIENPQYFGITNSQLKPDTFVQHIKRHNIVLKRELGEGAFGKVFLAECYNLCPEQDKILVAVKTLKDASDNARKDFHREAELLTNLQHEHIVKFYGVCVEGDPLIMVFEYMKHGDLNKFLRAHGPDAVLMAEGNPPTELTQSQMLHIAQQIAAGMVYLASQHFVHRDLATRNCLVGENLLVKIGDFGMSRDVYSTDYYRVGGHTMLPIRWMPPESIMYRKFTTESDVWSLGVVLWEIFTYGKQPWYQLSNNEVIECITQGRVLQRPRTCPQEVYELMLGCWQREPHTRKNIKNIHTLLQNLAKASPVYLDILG
structure (smiles),measurement,setting,value
"O=c1cc(-c2ccccc2)oc2c(O)c(O)ccc12 [7,8-dihydroxyflavone]",concentration of eluted compound as GST-TrkB ICD volumes increased,GST-TrkB ICD,remained constant
same,TrkB activation in wild-type neurons,TrkB [1],specifically activates TrkB
same,Glutamate-provoked Caspase-3 activation in TrkB-/- neurons,Caspase-3 activation [2],not
same,Glutamate-provoked Caspase-3 activation in wild-type neurons,Caspase-3 activation [2],substantially blocked
same,TrkB activation in wild-type and TrkC knockout neurons,TrkB [3],provoked TrkB
same,spontaneous caspase-3 activation in TrkC-/- neurons,Caspase-3 activation [4],suppressed
same,glutamate-triggered caspase-3 activation,Caspase-3 activation [4]; regardless of TrkC genotype,significantly diminished
same,activation of TrkB F616A,TrkB F616A,selectively activates TrkB F616A
same,neurogenesis (BrdU),[5],increased neurogenesis
same,swimming immobility,immobility,significantly decreased
same,immobility time after 1NMPP1 treatment,immobility time; 1NMPP1 25 μM in drinking water,"neither 4′-DMA-7,8-DHF nor 7,8-DHF had any significant effect"
same,"immobility time, saline group",immobility time,substantially reduced the immobility time
same,tyrosine phosphorylation of TrkB receptor,TrkB [6],elicited tyrosine phosphorylation
